One data set relates to C57BL/6J mice. Briefly: Head-twitch response. The class given is in vivo. As to conditions: for head-twitch response: intraperitoneal, up to 30 mg/kg. Here is the method: Animals. Female C57BL/6J mice used in the head twitch response and locomotion assays, and Sprague Dawley dams used to generate embryonic cultures were obtained from Jackson Laboratory (Sacramento, CA). Mice were housed in a temperature- and humidity-controlled room maintained on a 12 h light/dark cycle in groups of four to five (same sex). Animals weighed between 17 and 30 g at the time of the experiments. All experimental procedures involving rodents were approved by the UC Davis Institutional Animal Care and Use Committee (IACUC) and adhered to principles described in the National Institutes of Health Guide for the Care and Use of Laboratory Animals. The University of California, Davis is accredited by the Association for Assessment and Accreditation of Laboratory Animal Care International (AAALAC).
Head-Twitch Response and Locomotion. Mice (9-10 weeks old) were injected intraperitoneally with compounds dissolved in 10% Kolliphor® EL (Sigma) and 10% DMSO in 0.9% saline (injection volume 5 mL/kg) or vehicle, placed in an empty cage, and filmed for 10 min. Locomotion was quantified using ANYmaze Video Tracking System, version 7.07 (Stoelting Co.). After 10 min, mice were then injected with 5-MeO-DMT dissolved in 0.9% saline (10 mg/kg, injection volume 5 mL/kg) or vehicle and filmed for 20 min. Cages were cleaned with 70% ethanol between experiments. […] The last 20 min of each video were scored by one trained observer blinded to the treatment conditions.

The next data set deals with 5-HT2C (Homo sapiens, UniProt P28335). Description: Radioligand ([3H]-LSD) competition binding assays, 5-HT2C versus 5-HT2A. The note with it: FIG. 4. Here is the method: Radioligands Binding Assays. Binding buffer consisted of 50 mM Tris HCl, 10 mM MgCl2, 0.1 mM EDTA disodium dihydrate in autoclaved deionized water. The solution was adjusted to pH 7.4 with […] NaOH(aq) and stored at 4° C. This solution was used for membrane preparation generation as well as in saturation and competition binding assays.
Chain of 5-HT2C (P28335 33-458): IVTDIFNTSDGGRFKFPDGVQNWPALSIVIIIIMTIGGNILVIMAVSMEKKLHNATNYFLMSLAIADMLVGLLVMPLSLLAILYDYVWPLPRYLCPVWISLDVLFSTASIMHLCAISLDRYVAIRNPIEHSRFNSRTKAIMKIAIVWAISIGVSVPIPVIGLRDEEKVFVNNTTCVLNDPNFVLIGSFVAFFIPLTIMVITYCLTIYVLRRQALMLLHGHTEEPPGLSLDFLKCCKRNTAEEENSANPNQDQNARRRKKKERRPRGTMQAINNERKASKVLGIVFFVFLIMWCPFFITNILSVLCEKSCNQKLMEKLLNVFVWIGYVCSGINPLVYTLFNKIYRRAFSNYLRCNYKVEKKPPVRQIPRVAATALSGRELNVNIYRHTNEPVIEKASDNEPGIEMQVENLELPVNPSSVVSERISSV
For the generation of membrane preparations, 15-cm plates of PSYLI2 cells (HEK293T cell line stably expressing psychLight2; mycoplasma free) or HEK293T cells (ATCCCRL-11268; mycoplasma free) lipofected with pCMV-GRAB_5-HT were grown in Dulbecco's Modified Eagle Media (DMEM) (Fisher, 11995073) containing 10% fetal bovine serum (Fisher, 26-140-079) and 1% penicillin/streptomycin (Fisher, 15140-163). When the cells were >90% confluent, the media was removed, and the cells were washed with Dulbecco's Phosphate Buffered Saline (DPBS, 15 mL) (ThermoFisher, #14190-250). Next, DMEM (15 mL) lacking fetal bovine serum and penicillin/streptomycin was added, and the cells were serum-starved for 4-12 h. All but ~5 mL of the media was removed from the plates before placing them on ice. […] The suspension was transferred to 2.0 mL Eppendorf tubes in 1.0 mL aliquots, saving a single aliquot of 0.25-0.50 mL suspension to use for quantification of protein concentration via a Bradford assay. […]

The target in a further data set is T1, DYRK1A (Homo sapiens, UniProt Q13627).
T1 construct: purchased Promega
Briefly: DYRK1A inhibition (ADP-Glo assay). It counts as biochemical. The note with it: FIG. 3. The procedure:
DYRK1A inhibition. IC50s for all compounds at DYRK1A were determined using an ADP-Glo™ assay kit (Promega) and DYRK1A enzyme system (Promega) following the manufacturer's protocol. In brief, 10 μL of DYRKtide substrate (1 mg/mL) and ATP (50 μM) in kinase reaction buffer (40 mM Tris HCl, 20 mM MgCl2, 0.1 mg/mL BSA, 50 μM DTT in DI water) was added to a solid white 96-well plate. Next, 5 μL of 5× compound solutions in kinase reaction buffer (5% DMSO) or 5% DMSO in kinase reaction buffer was added. Then 10 μL DYRK1A in kinase reaction buffer (2 ng/μL) was added and the plate was incubated at room temperature for 60 min before adding 25 μL ADP-Glo™ reagent. The plate was incubated for 40 min at room temperature. Subsequently, 50 μL of Kinase Detection Reagent was added, the plate was gently shaken for 1 min. and incubated away from light for 30-40 min. Finally, luminescence was measured using a BioTek Synergy HTX multi-mode reader (integration time=1 s). All data was normalized such that the luminescence produced by the lowest concentration treatment of each compound was set to 100% DYRK1A activity.

The text below walks through data of US20260284018A1, “DUAL INHIBITORS OF DYRK1A AND 5-HT2 FOR TREATING A BRAIN DISORDER” (THE REGENTS OF THE UNIVERSITY OF CALIFORNIA, priority 2023, published 2026).

On to `COc1ccc2c3ccnc(C)c3n(CCN(C)C)c2c1.O=C(O)/C=C/C(=O)O` [HTW_A_8 fumarate, 2-(7-methoxy-1-methyl-9H-pyrido[3,4-b]indol-9-yl)-N,N-dimethylethan-1-amine Fumarate Salt (2:3)], for which the “dampening of head-twitch response produced by 5-MeO-DMT” value with C57BL/6J mice (30 mg/kg pretreatment, 10 mg/kg 5-MeO-DMT) was “sufficient to dampen the head-twitch response”. The head-twitch response entry in the data set on C57BL/6J mice is recorded as “failed to produce a head-twitch response”. The “affinity for 5-HT2C relative to 5-HT2A” value at 5-HT2C is “higher affinity ligands for 5-HT2C than 5-HT2A”. Moreover, the “inhibition of DYRK1A activity” value at DYRK1A is reported as “able to inhibit DYRK1A activity”.
With `COc1ccc2c(c1)N(CCN(C)C)/C(=C/C(C)=O)S2.O=C(O)/C=C/C(=O)O` [HTW_B_14 fumarate, (Z)-1-(3-(2-(dimethylamino)ethyl)-5-methoxybenzo[d]thiazol-2(3H)-ylidene)propan-2-one Fumarate Salt (1:1)], the head-twitch response entry in the data set with C57BL/6J mice is recorded as “failed to produce a head-twitch response”. Moreover, the “affinity for 5-HT2C relative to 5-HT2A” value on 5-HT2C was “higher affinity ligands for 5-HT2C than 5-HT2A”. Moreover, at DYRK1A, the “inhibition of DYRK1A activity” value is on record as “able to inhibit DYRK1A activity”.
